The values that follow come from patent publication US11179348B2, “Combination comprising pterostilbene for the treatment of cancer” (FUNDACIÓN UNIVERSIDAD CATÓLICA DE VALENCIA SAN VICENTE …, priority 2015, dated 2021).

One assay concerns NORA. The assay can be described thus: Plasma NORA levels (ELISA) in melanoma-bearing mice. The class given is in vivo. To be noted: melanoma-bearing mice treated vs not treated with Pter. An excerpt: Measurement of ACTH, Corticosterone, and NORA Levels.
Plasma levels of ACTH (Calbiotech, Inc., Spring Valley, Calif.), corticosterone (Kamiyama Biomedical Co., Seattle, Wash.), and NORA (IBL, Hamburg, Germany) were quantified by ELISA according to the instructions of the suppliers.

For another assay, the system named is BxPC-3 cells. As to the kind of experiment: Effect of Pter on BxPC-3 cell growth or viability in vitro. The note with it: 15 μM Pter×60 min every 24 h. The class given is cell-based, human. The procedure:
FIG. 11. In vivo effect of Pter on human pancreatic cancer growth. […] For the doses of 20 and 40 mg Pter/kg only the point at the end of the treatment period is shown.
Human A2058, MeWo and MelJuso melanoma cells, and mouse AtT-20 pituitary corticotroph tumor cells were from the American Type Culture Collection (ATCC). Human HEMa-LP epidermal melanocytes were from Life Technologies (Grand Island, N.Y.). Human MDA-MB-231 (triple negative: ER−, PR−, HER2−) and MCF-7 (ER+, PR+, HER2−) breast adenocarcinoma, A549 lung adenocarcinoma (NSCLC), HepG2 hepatocellular carcinoma, LNCaP (AR+) and PC-3 (AR−) prostate adenocarcinoma, SK-OV-3 epithelial ovarian carcinoma, and HT-29 and Caco-2 colorectal carcinoma cells were from the American Type Culture Collection. Cells were grown in Dulbecco's modified Eagle's medium (DMEM) (Invitrogen, San Diego, Calif.), pH 7.4, supplemented with 10% heat-inactivated FCS (Biochrom KG, Berlin, Germany), 100 units/ml penicillin and 100 μg/ml streptomycin. Cells were plated, at a density of 20,000 cells/cm2, and cultured at 37° C. in a humidified atmosphere with 5% CO2. […] Cell numbers were determined using a Coulter Counter (Coulter Electronic Inc., Miami, Fla.). […] Cellular viability was assessed as previously reported (Mena, S. et al. Clin Cancer Res 13, 2658-2666 (2007)), by measuring trypan blue exclusion and leakage of lactate dehydrogenase activity.

The subject of another assay is MelJuso melanoma. The assay can be described thus: In vivo growth of MelJuso melanoma xenografts in nu/nu mice. Also on record: species or system human.
The next assay has as its system CRH mRNA. As to the kind of experiment: CRH expression in the hypothalamic PVN (in situ hybridization). The class given is in vivo. The note with it: melanoma-bearing mice; significant in MeWo- and MelJuso-bearing mice. The procedure: CRH Expression in the Brain (In Situ Hybridization).
Sections of 10 μm of the PVN were cut according to a mouse brain atlas (Allen Institute for brain science, http://www.brain-map.org) on a cryostat, mounted on polysine microscope slides (Menzel-Glazer, Braunschweig, Germany), and stored at −80° C. for 24 h. Then sections were fixed in 4% paraformaldehyde, further permeabilized by proteinase K treatment, acetylated twice with 0.25% acetic anhydride in 0.1 M triethanolamine, and dehydrated in a graded ethanol series. Hybridization, carried out as described before (Lachize, S. et al. Proc Natl Acad Sci USA 106, 8038-8042 (2009)), was performed using specific 48-mer, ^35S-labeled oligonucleotide probes for murine CRH mRNA (5′-GGCCCGCGGCGCTCCAGAGACGGATCCCCTGCTCAGCAGGGCCCTGCA-3′) (SEQ ID NO: 1). Hybridized slices were exposed to BioMax MR film (Kodak, Rochester, N.Y.). The mRNA expression of CRH in the PVN was quantified as gray density minus background in digitized images using the NIH ImageJ 1.6 program (http://rsb.info.nih.gov/ij). Bilateral measures were taken from two to four PVN sections for each mouse, which were pooled to provide individual means per mouse. For tissue background, the optical density of a nonhybridized region outside the PVN was measured.

Assay [1] relates to A2058 cells isolated from tumor-bearing mice. As to the kind of experiment: Chemosensitization of cultured A2058 cells isolated from xenografts. The class given is cell-based, human. The note with it: A2058; 72 h-cultured; PL 1 μM, Chemo 0.25 μM PAC.PBP; Pter = in vivo pretreatment. The procedure: FIG. 5. Chemosensitization effect of GSH depletion (A) or sod1-AS (B) in melanoma cells isolated from Pter-treated mice. Melanoma cells were cultured as in FIG. 1C. PAC.PBP (100 ng/ml) was added to the culture flasks 24 h after seeding. […] Data are mean values±SD for 5-6 different experiments (*p<0.01, comparing all experimental conditions vs controls).
FIGS. 18-25. Effect of piperlongumine and I-BET762, as GSH depleting and chemosensitizing agents, in in vitro growing human melanoma, pancreatic, breast, lung, liver, prostate, ovarian, and colorectal cancer cells. Cancer cells, isolated from Pter-treated tumor-bearing mice, were cultured as indicated under Methods. Chemotherapy (0.25 μM PAC.PBP in A2058 melanoma and MDA-MB-231 breast carcinoma cells; 0.125 μM PAC.PBP and 25 μM GTB in AsPC-1 pancreatic cancer cells; 1 μM VRB and 15 μM cisPt in A459 lung carcinoma cells; 0.15 μM DXR in HepG2 hepatocellular carcinoma cells; 15 nM DCT in PC-3 prostate carcinoma cells; 0.15 μM PAC.PBP and 25 μM CarboPt in SK-OV-3 ovarian carcinoma cells; 3 μM 5-FU, 1 μM FA and 0.6 μM IRI in HT-29 colorectal carcinoma cells) was added to the cultured flasks 24 h after seeding. PL (1 μM in A2058 and AsPC-1 cells; 0.5 μM in A549 and HT-29 cells; 0.2 μM in HepG2, PC-3, and SK-OV-3 cells; 0.1 μM in MDA-MB-231 cells) or I-BET762 (0.5 μM in HT-29 cells; 0.2 μM in A2058, AsPC-1, HepG2, PC-3, and SK-OV-3 cells; 0.1 μM in A549 and MDA-MB-231 cells) were added 6 h later. Data are mean values±SD for 4-5 different experiments per cell line (*p<0.05 and **p<0.01, comparing all experimental conditions versus control. PL, piperlongumine; PAC.PBP, paclitaxel protein-bound particles; GTB, gemcitabine; DXR, doxorubicin; VRB, vinorelbin; CisPt, cisplatin; docetaxel, DCT; CarboPt, carboplatin; 5-FU, 5-fluoracil; FA, folinic acid; IRI, irinotecan; 5-FU+FA+IRI=FOLFIRI).
Human A2058, MeWo and MelJuso melanoma cells, and mouse AtT-20 pituitary corticotroph tumor cells were from the American Type Culture Collection (ATCC). Human HEMa-LP epidermal melanocytes were from Life Technologies (Grand Island, N.Y.). Human MDA-MB-231 (triple negative: ER−, PR−, HER2−) and MCF-7 (ER+, PR+, HER2−) breast adenocarcinoma, A549 lung adenocarcinoma (NSCLC), HepG2 hepatocellular carcinoma, LNCaP (AR+) and PC-3 (AR−) prostate adenocarcinoma, SK-OV-3 epithelial ovarian carcinoma, and HT-29 and Caco-2 colorectal carcinoma cells were from the American Type Culture Collection. Cells were grown in Dulbecco's modified Eagle's medium (DMEM) (Invitrogen, San Diego, Calif.), pH 7.4, supplemented with 10% heat-inactivated FCS (Biochrom KG, Berlin, Germany), 100 units/ml penicillin and 100 μg/ml streptomycin. Cells were plated, at a density of 20,000 cells/cm2, and cultured at 37° C. in a humidified atmosphere with 5% CO2. Cells were harvested by incubation for 5 min with 0.05% (w/v) trypsin (Sigma, St. Louis, Mo.) in PBS (10 mM sodium phosphate, 4 mM KCl, 137 mM NaCl), pH 7.4, containing 0.3 mM EDTA, followed by the addition of 10% FCS to inactivate the trypsin. Cell numbers were determined using a Coulter Counter (Coulter Electronic Inc., Miami, Fla.). Cells were allowed to attach for 12 h before any treatment addition. Cellular viability was assessed as previously reported (Mena, S. et al. Clin Cancer Res 13, 2658-2666 (2007)), by measuring trypan blue exclusion and leakage of lactate dehydrogenase activity.
Isolation of Tumor Cells from Mouse Xenografts Using Enzymatic Digestion and a double Ficoll gradient. […]
In general terms: A xenograft is tissue or cells of one species grown in another, often human tumour cells in immunodeficient mice.

Marks after values point to notes of the source that are not given here.

Regarding `COc1cc(/C=C/c2ccc(O)cc2)cc(OC)c1` [Pter, trans-3,5-dimethoxy-4′-hydroxystilbene], in the assay with NORA, the “NORA levels in plasma” value is reported as “not significantly different”. In addition, the “cell growth or viability in vitro” value in the assay on BxPC-3 cells is reported as “did not affect”. Besides, the “inhibition of tumor growth” value in the assay on MelJuso melanoma (MelJuso, day 42, 30 mg Pter/kg i.v. every 48 h, vs controls) is approximately 49%. Besides, the Tumor vol. in the assay with MelJuso melanoma (MelJuso-RFP, 35 days after inoculation, Pter 30 mg/kg i.v. every 48 h and/or CRC infusion 0.3 μg/h) is 145 ± 35* mm^3. For the same compound, the “CRH mRNA expression in the hypothalamic PVN” value in the assay with CRH mRNA is listed as “further decrease”. The Viable cells in assay [1] is 1015 ± 144 ×10^6.
